Target: T1, cereblon (CRBN) (Homo sapiens, UniProt Q96SW2)
T1 construct: GST-tagged human cereblon/DDB1, co-expressed by baculovirus; with DDB1
Experiment: competitive TR-FRET binding assay versus XL-665-labelled thalidomide

- EC50: 600 nM
Structure (SMILES): CN(C)c1ccc(-c2nc3ccc(OCCOCCOCCNc4cccc5c4C(=O)N(C4CCC(=O)NC4=O)C5=O)cc3s2)cc1 (stereo not shown) [compound 2, 4-((2-(2-(2-((2-(4-(Dimethylamino)phenyl)benzo[d]thiazol-6-yl)oxy)ethoxy)ethoxy)ethyl)amino)-2-(2,6-dioxopiperidin-3-yl)isoindoline-1,3-dione]

Source: PMC10131537, “Degradation of neurodegenerative disease-associated TDP-43 aggregates and oligomers via a proteolysis-targeting chimera” (Journal of Biomedical Science, 2023)
